Measurements from patent US12172983B2, “EGFR inhibitors” (Blueprint Medicines Corporation, priority 2019, dated 2024).
Like-named read-outs stand apart in the source and are kept apart here.

Assays:
[1] = target: T1, EGFR (L858R T790M C797S) (Homo sapiens, UniProt P00533, C797S/L858R/T790M); assay: Biochemical EGFR inhibition assay (Caliper mobility shift), EGFR LRTMCS mutant; settings: inhibitory activity against EGFR LRTMCS mutant; apparent IC50; read-out: Ext Enz LRTMCS
T1 construct: purchased SignalChem E10-122VG
In short: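 Each enzyme was allowed to phosphorylate 10–20% of its peptide at 25° C. before EDTA (35 mM) quench. Separated substrate and product peaks were measured by mobility shift, giving apparent IC50 values.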

[2] = tested on: phosphorylation of EGFR (Tyr1068) in NCI-H1975 cell line that harbors the EGFR L858R T790M mutations; assay: NCI-H1975 pEGFR AlphaLISA assay; type: cell-based; settings: 4-5 hours incubation, read-out: Ext pEGFR H1975
In short: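 Phospho-EGFR Tyr1068 AlphaLISA readout: lysates taken from compound-treated H1975 cells (L858R T790M EGFR) after a 4-5 h exposure at 37 °C. Cells had adhered overnight beforehand. IC50 derived by plotting % pEGFR inhibition against log compound concentration.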

[3] = inhibition of phosphorylation of mutant EGFR in NCI-H1975 cells
[4] = Homo sapiens, NCI-H1975, inhibition of phosphorylation of mutant EGFR in NCI-H1975 cells

T1 sequence (P00533 25-1210 T790M/C797S/L858R): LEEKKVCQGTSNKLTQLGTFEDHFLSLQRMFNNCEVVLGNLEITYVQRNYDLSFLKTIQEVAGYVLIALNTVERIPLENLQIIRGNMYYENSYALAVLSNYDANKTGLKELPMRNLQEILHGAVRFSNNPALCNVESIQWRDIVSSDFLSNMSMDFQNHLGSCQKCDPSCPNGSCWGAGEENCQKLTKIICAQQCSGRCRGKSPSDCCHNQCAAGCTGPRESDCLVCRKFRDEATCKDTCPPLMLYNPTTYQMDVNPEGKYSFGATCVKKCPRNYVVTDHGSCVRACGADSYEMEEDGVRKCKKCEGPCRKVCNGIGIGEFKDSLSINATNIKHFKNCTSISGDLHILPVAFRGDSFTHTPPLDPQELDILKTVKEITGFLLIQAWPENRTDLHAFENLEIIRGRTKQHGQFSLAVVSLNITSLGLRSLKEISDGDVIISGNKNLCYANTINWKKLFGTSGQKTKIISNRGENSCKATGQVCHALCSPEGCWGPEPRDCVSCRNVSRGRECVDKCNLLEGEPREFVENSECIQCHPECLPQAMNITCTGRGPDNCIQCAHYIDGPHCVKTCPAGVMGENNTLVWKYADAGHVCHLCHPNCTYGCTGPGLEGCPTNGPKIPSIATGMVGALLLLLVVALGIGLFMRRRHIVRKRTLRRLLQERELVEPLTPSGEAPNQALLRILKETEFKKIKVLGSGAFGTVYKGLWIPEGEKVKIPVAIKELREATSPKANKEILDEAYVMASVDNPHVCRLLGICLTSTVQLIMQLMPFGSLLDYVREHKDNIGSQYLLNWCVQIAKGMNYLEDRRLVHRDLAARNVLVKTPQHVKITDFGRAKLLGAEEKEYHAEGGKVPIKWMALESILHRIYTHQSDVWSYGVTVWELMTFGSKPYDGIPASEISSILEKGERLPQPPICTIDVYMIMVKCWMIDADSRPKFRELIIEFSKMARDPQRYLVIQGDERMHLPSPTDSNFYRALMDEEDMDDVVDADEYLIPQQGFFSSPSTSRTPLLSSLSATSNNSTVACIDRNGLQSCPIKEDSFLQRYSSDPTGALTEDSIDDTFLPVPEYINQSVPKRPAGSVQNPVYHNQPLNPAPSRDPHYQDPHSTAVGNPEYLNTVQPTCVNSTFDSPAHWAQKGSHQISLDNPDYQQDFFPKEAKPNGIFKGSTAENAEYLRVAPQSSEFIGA

| Compound | IC50 [1] [nM] | IC50 [2, 3] [nM] | IC50 [2, 4] [nM] |
| --- | --- | --- | --- |
| CO[C@H]1CCN(c2nccc(Nc3cc4c(C(C)C)ccc(N5C[C@H](CS(C)(=O)=O)[C@H]5C)c4cn3)n2)C[C@H]1C#N (single isomer, unassigned) [Compound 164, (3S,4S)-1-[4-({8-[(2R,3S)-3-(methanesulfonylmethyl)-2-methylazetidin-1-yl]-5-(propan-2-yl)isoquinolin-3-yl}amino)pyrimidin-2-yl]-4-methoxypiperidine-3-carbonitrile or (3R,4R)-1-[4-({8-[(2R,3S)-3-(methanesulfonylmethyl)-2-methylazetidin-1-yl]-5-(propan-2-yl)isoquinolin-3-yl}amino)pyrimidin-2-yl]-4-methoxypiperidine-3-carbonitrile] | 15.1 to 20 | ≤ 10 |  |
| CO[C@H]1CCN(c2nccc(Nc3cc4c(C(C)C)ccc(N5C[C@H](CS(C)(=O)=O)[C@H]5C)c4cn3)n2)C[C@H]1C#N (single isomer, unassigned) [Compound 165, (3R,4R)-1-[4-({8-[(2R,3S)-3-(methanesulfonylmethyl)-2-methylazetidin-1-yl]-5-(propan-2-yl)isoquinolin-3-yl}amino)pyrimidin-2-yl-4-methoxypiperidine-3-carbonitrile or (3S,4S)-1-[4-({8-[(2R,3S)-3-(methanesulfonylmethyl)-2-methylazetidin-1-yl]-5-(propan-2-yl)isoquinolin-3-yl}amino)pyrimidin-2-yl]-4-methoxypiperidine-3-carbonitrile] | ≤ 15 | 20.1 to 30 |  |
| CO[C@@H]1CCN(c2nccc(Nc3cc4c(C(C)C)ccc(N5C[C@H](CS(C)(=O)=O)[C@H]5C)c4cn3)n2)C[C@H]1C#N (single isomer, unassigned) [Compound 166, (3S,4R)-1-[4-({8-[(2R,3S)-3-(methanesulfonylmethyl)-2-methylazetidin-1-yl]-5-(propan-2-yl)isoquinolin-3-yl}amino)pyrimidin-2-yl]-4-methoxypiperidine-3-carbonitrile or (3R,4S)-1-[4-({8-[(2R,3S)-3-(methanesulfonylmethyl)-2-methylazetidin-1-yl]-5-(propan-2-yl)isoquinolin-3-yl}amino)pyrimidin-2-yl]-4-methoxypiperidine-3-carbonitrile] | 30.1 to 100 |  | 30.1 to 50 |
| CO[C@H]1CCN(c2nccc(Nc3cc4c(C(C)C)ccc(N5C[C@H](CS(C)(=O)=O)[C@H]5C)c4cn3)n2)C[C@@H]1CO (single isomer, unassigned) [Compound 172, [(3R,4S)-1-[4-({8-[(2R,3S)-3-(methanesulfonylmethyl)-2-methylazetidin-1-yl]-5-(propan-2-yl)isoquinolin-3-yl}amino)pyrimidin-2-yl]-4-methoxypiperidin-3-yl]methanol or [(3S,4R)-1-[4-({8-[(2R,3S)-3-(methanesulfonylmethyl)-2-methylazetidin-1-yl]-5-(propan-2-yl)isoquinolin-3-yl}amino)pyrimidin-2-yl]-4-methoxypiperidin-3-yl]methanol] | ≤ 15 |  | 20.1 to 30 |
| CO[C@@H]1CCN(c2nccc(Nc3cc4c(C(C)C)ccc(N5C[C@H](CS(C)(=O)=O)[C@H]5C)c4cn3)n2)C[C@@H]1CO (single isomer, unassigned) [Compound 173, [(3R,4R)-1-[4-({8-[(2R,3S)-3-(methanesulfonylmethyl)-2-methylazetidin-1-yl]-5-(propan-2-yl)isoquinolin-3-yl}amino)pyrimidin-2-yl]-4-methoxypiperidin-3-yl]methanol or [(3S,4S)-1-[4-({8-[(2R,3S)-3-(methanesulfonylmethyl)-2-methylazetidin-1-yl]-5-(propan-2-yl)isoquinolin-3-yl}amino)pyrimidin-2-yl]-4-methoxypiperidin-3-yl]methanol] | 15.1 to 20 |  | 20.1 to 30 |
